Where “and” joins values, the source holds several entries; their conditions need not be identical. Equal entries are not always repeated.
Experiments:
[1] = test system: RAW 264.7 cells; test: MTS cytotoxicity assay in RAW 264.7 cells; type: cell-based; settings: 800 μM peptide
Source text: (§1) The 20 peptides with the top scores were selected and entrusted to Nanjing GenScript Biotechnology Co., Ltd., with synthetic sample purity > 95%. The process was as follows: Select the appropriate resin, pretreat it with solvent, remove the resin protective group, and expose the active site. The first protective amino acid is activated and coupled to the resin, and the amino protecting group of the amino acid is removed after washing. Repeat the “Activation–Conjugation–Deprotection” step and gradually add amino acids to lengthen the peptide chain. The peptide is cleaved from the resin with reagents such as TFA while the side-chain guard group is removed. Peptides are precipitated, washed, purified by HPLC, and identified by mass spectrometry. RAW 264.7 cells were purchased from Peking Union Medical College. The cytotoxicity of 20 candidate peptides towards RAW 264.7 cells is evaluated in an MTS assay (Promega, Madison, WI, USA), adapted from reference with modifications. RAW 264.7 cells are maintained in Dulbecco’s Modified Eagle Medium (DMEM, C11995500BT, Gibco, Grand Island, NY, USA) supplemented with 10% fetal bovine serum (F8687, Merck, Darmstadt, Germany) and 1% penicillin-streptomycin (C0222, Beyotime, Shanghai, China) at 37 °C under 5% CO2. […] NO production is measured using a NO detection kit (G2930, Promega) following the manufacturer’s protocol.

[2] = test system: LPS-induced RAW 264.7 cells; test: NO production in LPS-induced RAW 264.7 cells; type: cell-based; settings: 200 μM peptide, 2 h pretreatment, then LPS (1 μg/mL) 24 h; vs LPS-treated group
Source text: as §1

[3] = test system: TRPV1-mediated Ca2+ influx in CAP-induced HaCaT cells; test: Capsaicin-induced Ca2+ influx in HaCaT cells (Fluo-4AM fluorescence); type: cell-based; settings: 200 μM peptide, 24 h pretreatment, CAP-stimulated HaCaT cells
Method: HaCaT cells were purchased from the Kunming Cell Bank, Chinese Academy of Sciences. Adapted from a previous study with modifications, HaCaT cells were cultured in DMEM supplemented with 10% fetal bovine serum and 1% penicillin-streptomycin at 37 °C under 5% CO2. Cells in the logarithmic growth phase were harvested and adjusted to a density of 1 × 10^5 CFU/mL. Cell suspensions (100 μL/well) were seeded into 96-well plates and incubated for 8–12 h. After removing the supernatant, the cells were treated with T10, T14, or T18 peptide solutions (200 μM) for 2, 6, 12, or 24 h, followed by stimulation with 100 μL CAP (IC0060, Solarbio) per well. Untreated cells served as blank controls. Intracellular Ca^2+ levels were quantified using a calcium ion assay kit (S1061S; Beyotime) according to the manufacturer’s protocol. Fluorescence images were captured using an inverted fluorescence microscope and analyzed using ImageJ software (NIH, Bethesda, MD, USA) to calculate the average fluorescence intensity.

[4] = test system: LPS-induced RAW 264.7 cells; test: Mouse cytokine array of LPS-induced RAW 264.7 cell supernatants; type: cell-based; settings: T14 200 μM 6 h pretreatment, LPS 24 h; vs LPS group
Method: The expression levels of 40 cytokines and chemokines in RAW 264.7 cell culture supernatants were analyzed using the Proteome Profiler™ Mouse Cytokine Array Panel A (ARY006, R&D Systems, Minneapolis, MN, USA) following the manufacturer’s protocol. Supernatants from treated groups were collected, and 300 μL per sample was used for each array. All reagents were equilibrated to room temperature (26 ± 0.5 °C) prior to use. The array membrane was blocked with blocking buffer for 2 h at room temperature. During blocking, the detection antibody cocktail was mixed with the cell supernatant and incubated at room temperature for 1 h. The mixture was then transferred to the blocked membrane and incubated overnight at 4 °C. Post-incubation, the membrane was washed three times with wash buffer (≥10 min per wash). Horseradish peroxidase-conjugated streptavidin was added, and the membrane was incubated for 2 h at room temperature. After thorough washing, a chemiluminescent substrate was applied, and signals were captured using a chemiluminescence imaging system. The array images were analyzed using ImageJ software to quantify the integrated optical density.

[5] = test system: NF-κB p65 in CAP-induced HaCaT cells; test: Western blot of NF-κB p65 in CAP-induced HaCaT cells; type: cell-based; settings: varying concentrations of T14 6 h pretreatment, CAP 24 h, total cellular protein
Method: Adapted from a previous study with modifications, HaCaT cells were seeded into 6-well plates at a density of 2.0 × 10^5 CFU/mL and cultured for 8–12 h. Cells were pretreated with varying concentrations of T14 for 6 h, followed by co-stimulation with CAP for 24 h. After washing with Dulbecco’s phosphate-buffered saline, the cells were lysed on ice for 1 h using RIPA Lysis Buffer (R0010, Solarbio). Lysates were centrifuged at 12,000× g for 30 min at 4 °C, and the supernatants were collected. Protein concentrations were quantified using a BCA assay and normalized. Loading buffer (P1016, Solarbio) was added at a 1:3 ratio, and the samples were denatured at 95 °C for 5 min using a heat block before being stored at −20 °C.
Proteins (10 μL/lane) were resolved via sodium dodecyl sulfate-polyacrylamide gel electrophoresis and transferred onto polyvinylidene fluoride membranes. Membranes were blocked with 5% skim milk in Tris-buffered saline containing 0.1% Tween-20 for 2 h at room temperature. Primary antibodies against NF-κB p65 (8242T, Cell Signaling Technology, Danvers, MA, USA) and GAPDH (CL594-6004, Abclonal, Wuhan, China) were diluted according to the manufacturer’s guidelines and incubated overnight at 4 °C. […] Band intensities were quantified using ImageJ software.

[6] = test system: ET-1 in LPS-induced HUVECs; test: ET-1 ELISA in LPS-induced HUVECs; type: cell-based, human; settings: LPS 10 μg/mL 24 h; for ET-1 inhibition rate: (LPS − peptide)/(LPS − control)
Method: (§2) HUVEC cell were purchased from Peking Union Medical College. HUVECS were cultured according to protocols provided by the Peking Union Medical College Cell Bank. Cells were maintained in DMEM supplemented with 10% fetal bovine serum, 1% penicillin-streptomycin, 1% GlutaMAX™ (25030149, Gibco), 1% non-essential amino acids (N1250, Solarbio), and 2% sodium pyruvate (11360070, Gibco) at 37 °C under 5% CO2. Cells in the logarithmic growth phase were seeded into 24-well plates at 2 × 10^5 CFU/mL and incubated overnight. After supernatant removal, the cells were pretreated with varying concentrations of T14 peptide (50, 100, 200, 400 μM) for 6 h, followed by co-stimulation with LPS (10 μg/mL) for 24 h. Cell culture supernatants were collected, and the expression levels of ET-1 and ICAM-1 were quantified using ELISA kits (E-EL-H0064 for ET-1, E-EL-H6114 for ICAM-1; Procell, Wuhan, China) according to the manufacturer’s instructions. The inhibition rate was calculated using the following formula:Inhibition rate (%) = (LPS − peptide)/(LPS − control) × 100%

[7] = test system: ICAM-1 in LPS-induced HUVECs; test: ICAM-1 ELISA in LPS-induced HUVECs; type: cell-based, human; settings: LPS 10 μg/mL 24 h; for ICAM-1 inhibition rate: (LPS − peptide)/(LPS − control); for ICAM-1 level: control 0.43, LPS 0.57 pg/mL
Method: as §2

Row | Substance | cell viability [1] | Inhibitory effect on NO production [2] | inhibition rate of Ca2+ fluorescence intensity [3] | TIMP-1 expression [4] | expression of G-CSF, GM-CSF, ICAM-1, IL-3, IL-6, IL-23 and TNF-α [4] | expression of M-CSF, IL-1α, IL-7, IL-13, IL-12P70, IL-16, IL-17, IL-27, CCL3, CCL4, CXCL2 and CCL5 [4] | p65 expression [5] | ET-1 inhibition rate ([6]; 100 μM T14, 6 h pretreatment) | ET-1 inhibition rate ([6]; 400 μM T14, 6 h pretreatment) | ET-1 level ([6]; 400 μM T14, 6 h pretreatment, control 2.05, LPS 2.7 pg/mL) | ICAM-1 inhibition rate ([7]; 50 μM T14, 6 h pretreatment) | ICAM-1 level ([7]; 50 μM T14, 6 h pretreatment) | ICAM-1 inhibition rate ([7]; 400 μM T14, 6 h pretreatment) | ICAM-1 level ([7]; 400 μM T14, 6 h pretreatment)
1 | LFIL [T9, hit peptide from T. fasciatus skin hydrolysate, made by solid-phase synthesis] | proliferative effects |  |  |  |  |  |  |  |  |  |  |  |  | 
2 | LDIF [T14, hit peptide from T. fasciatus skin hydrolysate, made by solid-phase synthesis] |  | significant inhibition | 73.1% | markedly upregulated | significantly downregulated | moderate downward trend | markedly reduced p65 expression | 24.47% | 75.0% | 2.2 pg/mL | 20.65% | 0.54 pg/mL | 49.0% and 48.96% | 0.50 pg/mL
3 | IFDL [T5, hit peptide from T. fasciatus skin hydrolysate, made by solid-phase synthesis] | proliferative effects |  |  |  |  |  |  |  |  |  |  |  |  | 
